Reference: PubChem BioAssay (NCI)
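GI50 = concentration required for 50% inhibition of growth. TGI: total growth inhibition.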

Assays:
Assay in all cases: NCI-60 cell line screen, 384-well format
[1] = system: 786-0 renal
[2] = system: A498 renal
[3] = system: A549 NSCLC
[4] = system: ACHN renal
[5] = system: BT-549 breast
[6] = system: CAKI-1 renal
[7] = system: CCRF-CEM leukemia
[8] = system: DU-145 prostate
[9] = system: EKVX NSCLC
[10] = system: HCC-2998 colon
[11] = system: HCT-116 colon
[12] = system: HCT-15 colon
[13] = system: HL-60(TB) leukemia
[14] = system: HOP-62 NSCLC
[15] = system: HOP-92 NSCLC
[16] = system: HS 578T breast
[17] = system: HT29 colon
[18] = system: IGROV1 ovarian
[19] = system: K-562 leukemia
[20] = system: KM12 colon
[21] = system: LOX IMVI melanoma
[22] = system: M14 melanoma
[23] = system: MALME-3M melanoma
[24] = system: MCF7 breast
[25] = system: MDA-MB-231 breast
[26] = system: MDA-MB-435 melanoma
[27] = system: MDA-MB-468 breast
[28] = system: MOLT-4 leukemia
[29] = system: NCI-H226 lung
[30] = system: NCI-H23 lung

Work on `Nc1nc(Cl)nc2c1ncn2C1OC(CO)C(O)C1F` (stereo not given) yielded a GI50 [1] of 97.5 nM, a GI50 [2] of 324 nM and a TGI [2] of over 23100 nM. It also gave a GI50 [3] of 176 nM, a TGI [3] of over 100000 nM and a GI50 [4] of 122 nM. The TGI [4] was 427 nM, the GI50 [5] was 77.4 nM and the TGI [5] was 483 nM. It also gave a GI50 [6] of 91.5 nM, a GI50 [7] of 15.7 nM and a TGI [7] of 29.7 nM. It also gave a GI50 [8] of 277 nM, a GI50 [9] of 914 nM and a GI50 [10] of 34.6 nM. It also gave a TGI [10] of over 100000 nM, a GI50 [11] of 57.6 nM and a TGI [11] of over 100000 nM. It also gave a GI50 [12] of 202 nM, a TGI [12] of over 100000 nM and a GI50 [13] of 20.5 nM. For the same compound, the TGI [13] was 36.8 nM, the GI50 [14] was 41.9 nM and the TGI [14] was 150 nM. For the same compound, the GI50 [15] was 301 nM, the TGI [15] was over 100000 nM and the GI50 [16] was 430 nM. It also gave a TGI [16] of over 22800 nM, a GI50 [17] of 510 nM and a TGI [17] of over 100000 nM. The GI50 [18] was 419 nM, the TGI [18] was over 100000 nM and the GI50 [19] was 80.4 nM. The TGI [19] was over 100000 nM, the GI50 [20] was 323 nM and the TGI [20] was over 100000 nM. For the same compound, the GI50 [21] was 306 nM, the TGI [21] was 880 nM and the GI50 [22] was 74.8 nM. For the same compound, the TGI [22] was 290 nM, the GI50 [23] was 375 nM and the TGI [23] was over 100000 nM. For the same compound, the GI50 [24] was 200 nM, the TGI [24] was over 100000 nM and the GI50 [25] was 346 nM. It also gave a TGI [25] of over 100000 nM, a GI50 [26] of 261 nM and a TGI [26] of over 100000 nM. The GI50 [27] was 253 nM, the TGI [27] was 699 nM and the GI50 [28] was 14.8 nM. It also gave a TGI [28] of 28.3 nM, a GI50 [29] of 775 nM and a TGI [29] of 3580 nM. For the same compound, the GI50 [30] was 37.7 nM.
